Tests used:
MDR-P. aeruginosa = assay: Resistance development study, serial passaging at sub-MIC; assay type: cell-based, Pseudomonas aeruginosa; details: 14 passages over 2 weeks
Procedure: (§1) The resistance development study was performed following the protocol published earlier. […] To compare the result, the last-resort gram-negative antibiotics, Polymyxin-B, and carbapenem type, Imipenem, were used in the study. According to the protocol elaborated for the MIC assay above, the MIC values of compounds and antibiotics were determined against corresponding bacteria overnight. The next day, a new MIC assay was performed where the bacterial suspension was prepared from the bacteria grown at the sub-MIC (MIC/2) of compound concentration of the first-day experiment. The next 14 continuous passages were repeated as described above. The resistance development was calculated as the fold increase of MIC by dividing MIC to the initial MIC values of every passage and then plotted against the passage number. These experiments were performed in triplicate.
(§2) MDR bacteria employ various strategies inherently or adaptively to build up resistance, which becomes a serious health concern. […] Bacteria were exposed to continuous serial passaging at the sub-MIC level over 2 weeks. Antibiotics imipenem and polymyxin-B were used as controls.

MDR-K. pneumoniae = assay: as above; assay type: cell-based, Klebsiella pneumoniae; details: 14 passages over 2 weeks
Procedure: as §1, §2

[1] = tested on: MDR-P. aeruginosa biofilm; assay: Biofilm eradication, quantification through bacterial cell viability; assay type: cell-based, Pseudomonas aeruginosa; details: 16×MIC
Procedure: (§3) 18 mm glass coverslips were sterilized with flame after rinsing with ethanol. The bacterial biofilms were grown by following the previously published protocol. After the preparation of mid-log grown MDR-P. aeruginosa bacteria in TSB media, bacteria concentration was adjusted in NB with 1% (w/v) glucose and 1% (w/v) NaCl supplements to ˜10^5 CFU/mL. 2 mL of the diluted bacterial cell culture was used to fill the 6-well plate and 18 mm sterilized glass coverslips were added to each well. The plate was incubated at 37° C. for 72 h. After 72 h, 1×PBS (pH=7.4) was used to wash away unadhered planktonic bacteria. The carefully washed coverslips containing surface-attached biofilms were placed into a new 6-well sterile plate. Later, various concentration of 1-QAC-Hex (2 mL) was added into the wells and incubated for 24 h. Polymyxin-B was used as a control antibiotic. As a negative control, 2 mL of media was added without compound. The following three experiments were adjusted in the further steps as follows.
Once again, coverslips were washed with 1×PBS and transferred to another new, sterile plate. Afterward, 2 mL of trypsin-EDTA solution (diluted in saline at a 1:10 ratio) was added to each well and incubated for 15 min. Samples of 20 μL of each concentration were then 10-fold serially diluted in 1×PBS. […]

[2] = tested on: MDR-P. aeruginosa biofilm; assay: Biofilm eradication, confocal fluorescence microscopy (SYTO 9/PI, Z-stack); assay type: cell-based, Pseudomonas aeruginosa
Procedure: as §3
Coverslips were washed with 1×PBS and left to dry for 2 min. MDR-P. aeruginosa biofilm was simultaneously stained with equal volumes of (5 μL) SYTO 9 (60 μM) and PI (15 μM) and was placed on the slide immediately followed by incubation in darkness for 15 min. The glass coverslips images on the slide were captured with a Zeiss LSM 410 Confocal Laser Scanning Microscope in 40× magnification. […]

[3] = tested on: mouse red blood cells (RBCs)
Description: Hemolysis was given as HC50 where the concentration of a polymer causes 50% lysis of RBCs. […] RBC in PBS was used as the negative control to subtract any background signals.

Row | Compound | change in MIC after serial passaging (MDR-P. aeruginosa) | change in MIC after serial passaging (MDR-K. pneumoniae) | killing of viable bacteria within the biofilm, in words [1] | thickness of biofilm ([2]; 16×MIC, control 9.96 μm) | live/dead cells in biofilm after treatment ([2]; polymyxin-B 16×MIC, 3-QAC-Hex 16×MIC and 32×MIC) | lysis of RBCs [3]
1 | C[C@@H](O)[C@H]1C(=O)N2C(C(=O)O)=C(SCCN=CN)C[C@H]12 [imipenem] | 16 fold | 16 fold | – | – | – | –
2 | polymyxin-B | 8 fold | 16 fold | unable to kill the viable bacteria protected within the biofilm | 9.03 μm | a large amount of live cells | –
3 | Triton-X 100 | – | – | – | – | – | 100%

— patent publication US20250360162A1, “Naphthoic Acid-Derived Polymers as Antimicrobial Agents” (UNIVERSITY OF SOUTH CAROLINA, priority 2024, published 2025)
